Experimental data taken from patent US8058475B2, “Substituted cyclohexylmethyl compounds” (Gruenenthal GmbH, priority 2005, dated 2011).
Like-named read-outs stand apart in the source and are kept apart here.

Molecular target: human μ-opiate receptor (Homo sapiens, UniProt P35372)
Test: Affinity for the human μ-opiate receptor ([3H]-naloxone displacement, SPA, CHO-K1 membrane preparation)
Type: binding
Settings: for Ki: read-out: μ-Opioid receptor, Ki; for inhibition at 1 µM: read-out: μ-Opioid receptor, % inhibition [1 μM]
[1] = 1 μM test substance, inhibition of specific [3H]-naloxone binding

human μ-opiate receptor, sequence (P35372 whole entry): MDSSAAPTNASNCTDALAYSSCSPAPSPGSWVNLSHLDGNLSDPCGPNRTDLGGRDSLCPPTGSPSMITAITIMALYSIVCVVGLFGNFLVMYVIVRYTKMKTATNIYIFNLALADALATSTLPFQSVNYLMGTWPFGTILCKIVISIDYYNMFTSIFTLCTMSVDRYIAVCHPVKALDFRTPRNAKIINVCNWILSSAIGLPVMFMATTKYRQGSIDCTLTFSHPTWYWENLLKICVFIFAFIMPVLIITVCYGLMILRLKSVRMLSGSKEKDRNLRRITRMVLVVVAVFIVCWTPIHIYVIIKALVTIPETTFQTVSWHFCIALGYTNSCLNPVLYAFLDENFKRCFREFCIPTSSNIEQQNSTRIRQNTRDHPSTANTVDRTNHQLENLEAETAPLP

Compound | μ-Opioid receptor, % inhibition [1 μM] (1 µM) | Ki | inhibition at 1 µM | inhibition at 1 µM [1]
CN(C)C(c1ccccc1)C1CCC(CNC(=O)c2cccnc2Oc2ccc(Cl)cc2)CC1 (single isomer, unassigned) [compound 383, 2-(4-chloro-phenoxy)-N-[4-(dimethylamino-phenyl-methyl)-cyclohexylmethyl]-nicotinamide] | 83% | 86 nM |  | 
Cc1oc(-c2ccccc2)cc1C(=O)NCC1CCC(C(c2ccccc2)N(C)C)CC1 (centres unmarked) [compound 345, 2-methyl-5-phenyl-furan-3-carboxylic acid [4-(dimethylamino-phenyl-methyl)-cyclohexylmethyl]-amide] |  | 13 nM | 90% | 
CN(C)C(c1ccc(F)cc1)C1CCC(NC(=O)c2ccc(Cl)c(Cl)c2)CC1 (centres unmarked) [compound 270, 3,4-dichloro-N-{4-[dimethylamino-(4-fluoro-phenyl)-methyl]-cyclohexyl}-benzamide] |  | 190 nM | 75% | 
COc1cccc(OC)c1C(=O)NC1CCC(C(c2ccccc2)N(C)C)CC1 (centres unmarked) [compound 287, N-[4-(dimethylamino-phenyl-methyl)-cyclohexyl]-2,6-dimethoxy-benzamide] |  | 150 nM | 71% | 
Cc1cccc(C(=O)NCCC2CCC(C(c3cccc(F)c3)N(C)C)CC2)c1 (centres unmarked) [compound 412, N-(2-{4-[dimethylamino-(3-fluoro-phenyl)-methyl]-cyclohexyl}-ethyl)-3-methyl-benzamide] |  | 32 nM | 93% | 
CN(C)C(c1ccccc1)C1CCC(CNC(=O)c2cccs2)CC1 (centres unmarked) [compound 328, thiophene-2-carboxylic acid [4-(dimethylamino-phenyl-methyl)-cyclohexyl-methyl]-amide] |  | 16 nM | 94% | 
Cc1ccc(Oc2ncccc2C(=O)NCC2CCC(C(c3ccc(Cl)cc3)N(C)C)CC2)cc1 (centres unmarked) [compound 382, N-{4-[(4-chloro-phenyl)-dimethylamino-methyl]-cyclohexylmethyl}-2-p-tolyloxy-nicotinamide] |  |  | 83% | 
CCCc1ccc(C(=O)NC2CCC(C(c3cccs3)N(C)C)CC2)cc1 (centres unmarked) [compound 185, N-[4-(dimethylamino-thiophen-2-yl-methyl)-cyclohexyl]-4-propyl-benzamide] |  | 37 nM | 100% | 
COc1c(C(=O)NCC2CCC(C(c3ccc(F)cc3)N(C)C)CC2)csc1Cl (centres unmarked) [compound 376, 5-chloro-4-methoxy-thiophene-3-carboxylic acid {4-[dimethylamino-(4-fluoro-phenyl)-methyl]-cyclohexylmethyl}-amide] |  | 40 nM | 84% | 
Cc1cc(C(=O)NCC2CCC(C(c3ccc(Cl)cc3)N(C)C)CC2)no1 (centres unmarked) [compound 385, 5-methyl-isoxazole-3-carboxylic acid {4-[(4-chloro-phenyl)-dimethylamino-methyl]-cyclohexylmethyl}-amide] |  | 68 nM | 82% | 
COc1cccc(C(=O)NCC2CCC(C(c3ccc(Cl)cc3)N(C)C)CC2)c1 (centres unmarked) [compound 393, N-{4-[(4-chloro-phenyl)-dimethylamino-methyl]-cyclohexylmethyl}-3-methoxy-benzamide] |  | 44 nM | 80% | 
CN(C)C(c1ccc(Cl)cc1)C1CCC(O)(c2cc(F)cc(F)c2)CC1 (centres unmarked) [compound 166, 4-[(4-chloro-phenyl)-dimethylamino-methyl]-1-(3,5-difluoro-phenyl)-cyclohexanol] |  |  |  | 62%
Cc1oc(-c2ccc(Cl)cc2)cc1C(=O)NC1CCC(C(c2cccs2)N(C)C)CC1 (centres unmarked) [compound 229, 5-(4-chloro-phenyl)-2-methyl-furan-3-carboxylic acid [4-(dimethylamino-thiophen-2-yl-methyl)-cyclohexyl]-amide] |  | 39 nM | 86% | 
Cc1onc(-c2c(Cl)cccc2Cl)c1C(=O)NCCC1CCC(C(c2cccs2)N(C)C)CC1 (centres unmarked) [compound 469, 3-(2,6-dichloro-phenyl)-5-methyl-isoxazole-4-carboxylic acid {2-[4-(dimethylamino-thiophen-2-yl-methyl)-cyclohexyl]-ethyl}-amide] |  | 57 nM | 87% | 
CCCCCC1(O)CCC(C(c2ccc(Cl)cc2)N(C)C)CC1 (centres unmarked) [compound 169, 4-[(4-chloro-phenyl)-dimethylamino-methyl]-1-pentyl-cyclohexanol] |  |  |  | 71%
CCCCCC1(O)CCC(C(c2cccc(F)c2)N(C)C)CC1 (centres unmarked) [compound 154, 4-[dimethylamino-(3-fluoro-phenyl)-methyl]-1-pentyl-cyclohexanol] |  |  |  | 50%
CN(C)C(c1cccc(F)c1)C1CCC(NC(=O)c2ccc(F)c(Cl)c2)CC1 (centres unmarked) [compound 269, 3-chloro-N-{4-[dimethylamino-(3-fluoro-phenyl)-methyl]-cyclohexyl}-4-fluoro-benzamide] |  | 47 nM | 75% | 
CN(C)C(c1ccc(F)cc1)C1CCC(CNC(=O)C2(c3ccc(Cl)cc3)CCCC2)CC1 (centres unmarked) [compound 370, 1-(4-chloro-phenyl)-cyclopentane-carboxylic acid {4-[dimethylamino-(4-fluoro-phenyl)-methyl]-cyclohexylmethyl}-amide] |  | 81 nM | 84% | 

Compound | μ-Opioid receptor, % inhibition [1 μM] (1 µM) | Ki | inhibition at 1 µM | inhibition at 1 µM [1]
CN(C)C(c1ccccc1)C1CCC(NC(=O)c2cccs2)CC1 (single isomer, unassigned) [compound 245, thiophene-2-carboxylic acid [4-(dimethylamino-phenyl-methyl)-cyclohexyl]-amide] |  | 66 nM | 82% | 
CCC(C(=O)NC1CCC(C(c2ccccc2)N(C)C)CC1)c1ccccc1 (single isomer, unassigned) [compound 234, N-[4-(dimethylamino-phenyl-methyl)-cyclohexyl]-2-phenyl-butyramide] |  | 46 nM | 84% | 
CCC(C)C(=O)NCC1CCC(C(c2cccc(F)c2)N(C)C)CC1 (single isomer, unassigned) [compound 342, N-{4-[dimethylamino-(3-fluoro-phenyl)-methyl]-cyclohexylmethyl}-2-methyl-butyramide] |  | 28 nM | 90% | 
CN(C)C(c1cccs1)C1CCC(CCNC(=O)c2ccc(F)cc2)CC1 (centres unmarked) [compound 426, N-{2-[4-(dimethylamino-thiophen-2-yl-methyl)-cyclohexyl]-ethyl}-4-fluoro-benzamide] |  | 5.8 nM | 99% | 
CN(C)C(c1cccs1)C1CCC(NC(=O)c2cccc(C#N)c2)CC1 (centres unmarked) [compound 186, 3-cyano-N-[4-(dimethylamino-thiophen-2-yl-methyl)-cyclohexyl]-benzamide] |  | 18 nM | 100% | 
CN(C)C(c1cccc(F)c1)C1CCC(NC(=O)c2ccc(Cl)c(Cl)c2)CC1 (centres unmarked) [compound 209, 3,4-dichloro-N-{4-[dimethylamino-(3-fluoro-phenyl)-methyl]-cyclohexyl}-benzamide] |  | 47 nM | 92% | 
CN(C)C(c1ccc(Cl)cc1)C1CCC(CNC(=O)Cc2cccs2)CC1 (centres unmarked) [compound 316, N-{4-[(4-chloro-phenyl)-dimethylamino-methyl]-cyclohexylmethyl}-2-thiophen-2-yl-acetamide] |  |  | 96% | 
CN(C)C(c1ccccc1)C1CCC(NC(=O)c2cc(C(F)(F)F)ccc2F)CC1 (centres unmarked) [compound 205, N-[4-(dimethylamino-phenyl-methyl)-cyclohexyl]-2-fluoro-5-trifluoromethyl-benzamide] |  | 22 nM | 94% | 
CN(C)C(c1cccc(F)c1)C1CCC(CNC(=O)c2ccccc2Br)CC1 (centres unmarked) [compound 363, 2-bromo-N-{4-[dimethylamino-(3-fluoro-phenyl)-methyl]-cyclohexylmethyl}-benzamide] |  | 38 nM | 85% | 
Cc1oc(-c2ccccc2)cc1C(=O)NC1CCC(C(c2cccc(F)c2)N(C)C)CC1 (centres unmarked) [compound 266, 2-methyl-5-phenyl-furan-3-carboxylic acid {4-[dimethylamino-(3-fluoro-phenyl)-methyl]-cyclohexyl}-amide] |  | 36 nM | 78% | 
Cc1nc(-c2ccccc2)sc1C(=O)NC1CCC(C(c2ccccc2)N(C)C)CC1 (centres unmarked) [compound 238, 4-methyl-2-phenyl-thiazole-5-carboxylic acid [4-(dimethylamino-phenyl-methyl)-cyclohexyl]-amide] |  | 38 nM | 83% | 
CN(C)C(c1ccc(Cl)cc1)C1CCC(O)(c2ccc(F)cc2)CC1 (centres unmarked) [compound 162, 4-[(4-chloro-phenyl)-dimethylamino-methyl]-1-(4-fluoro-phenyl)-cyclohexanol] |  |  |  | 59%
CC(Oc1ccccc1)C(=O)NCC1CCC(C(c2ccc(Cl)cc2)N(C)C)CC1 (centres unmarked) [compound 391, N-{4-[(4-chloro-phenyl)-dimethylamino-methyl]-cyclohexylmethyl}-2-phenoxy-propionamide] |  | 26 nM | 81% | 
CN(C)C(c1ccccc1)C1CCC(CNC(=O)c2c(Cl)cc(Cl)cc2Cl)CC1 (centres unmarked) [compound 338, 2,4,6-trichloro-N-[4-(dimethylamino-phenyl-methyl)-cyclohexylmethyl]-benzamide] |  | 28 nM | 91% | 
CN(C)C(c1ccc(F)cc1)C1CCC(CNC(=O)Cc2cccs2)CC1 (centres unmarked) [compound 359, N-{4-[dimethylamino-(4-fluoro-phenyl)-methyl]-cyclohexylmethyl}-2-thiophen-2-yl-acetamide] |  |  | 86% | 
CCC(C)C(=O)NCC1CCC(C(c2ccccc2)N(C)C)CC1 (centres unmarked) [compound 387, N-[4-(dimethylamino-phenyl-methyl)-cyclohexylmethyl]-2-methyl-butyramide] |  | 70 nM | 81% | 
CN(C)C(c1cccs1)C1CCC(NC(=O)c2cncc(Br)c2)CC1 (centres unmarked) [compound 225, 5-bromo-N-[4-(dimethylamino-thiophen-2-yl-methyl)-cyclohexyl]-nicotinamide] |  | 20 nM | 87% | 
COc1cccc(CC(=O)NCCC2CCC(C(c3cccc(F)c3)N(C)C)CC2)c1 (centres unmarked) [compound 453, N-(2-{4-[dimethylamino-(3-fluoro-phenyl)-methyl]-cyclohexyl}-ethyl)-2-(3-methoxy-phenyl)-acetamide] |  | 43 nM | 83% | 
